Experiment: xn = mol fraction of the nth substance listed

c1ccccc1 + CCCO
Conditions | viscosity [mPa·s]
293.15 K, 101 kPa, x1 = 0.7 | 0.7259
295.15 K, 101 kPa, x2 = 0.0129 | 0.6231
295.15 K, 101 kPa, x2 = 0.01297 | 0.6234
295.15 K, 101 kPa, x2 = 0.02571 | 0.6203
295.15 K, 101 kPa, x2 = 0.0258 | 0.6203
295.15 K, 101 kPa, x2 = 0.02588 | 0.6203
295.15 K, 101 kPa, x2 = 0.03494 | 0.6193
295.15 K, 101 kPa, x2 = 0.04358 | 0.6193
295.15 K, 101 kPa, x2 = 0.06103 | 0.6204
295.15 K, 101 kPa, x2 = 0.1016 | 0.6265
295.15 K, 101 kPa, x2 = 0.2458 | 0.6758
295.15 K, 101 kPa, x2 = 0.5664 | 0.9778
295.15 K, 101 kPa, x2 = 0.9204 | 1.808
298.15 K, 100 kPa, x2 = 0.059 | 0.6108
298.15 K, 100 kPa, x2 = 0.1169 | 0.6226
298.15 K, 100 kPa, x2 = 0.2295 | 0.6135
298.15 K, 100 kPa, x2 = 0.2843 | 0.6582
298.15 K, 100 kPa, x2 = 0.3733 | 0.7116
298.15 K, 100 kPa, x2 = 0.5437 | 0.8989
298.15 K, 100 kPa, x2 = 0.6252 | 1.017
298.15 K, 100 kPa, x2 = 0.7044 | 1.166
298.15 K, 100 kPa, x2 = 0.7814 | 1.289
298.15 K, 100 kPa, x2 = 0.8563 | 1.469
298.15 K, 100 kPa, x2 = 0.9291 | 1.719
298.15 K, 101 kPa, x1 = 0.062 | 1.707
298.15 K, 101 kPa, x1 = 0.1398 | 1.471
298.15 K, 101 kPa, x1 = 0.295 | 1.132
298.15 K, 101 kPa, x1 = 0.388 | 0.988
298.15 K, 101 kPa, x1 = 0.4349 | 0.565
298.15 K, 101 kPa, x1 = 0.4661 | 0.887
298.15 K, 101 kPa, x1 = 0.5335 | 0.394
298.15 K, 101 kPa, x1 = 0.5337 | 0.805
298.15 K, 101 kPa, x1 = 0.6049 | 0.741
298.15 K, 101 kPa, x1 = 0.6086 | 0.4578
298.15 K, 101 kPa, x1 = 0.7128 | 0.657
298.15 K, 101 kPa, x1 = 0.806 | 0.626
298.15 K, 101 kPa, x1 = 0.89 | 0.604
298.15 K, 101.3 kPa, x1 = 0.1571 | 1.435
298.15 K, 101.3 kPa, x1 = 0.3573 | 1.018
298.15 K, 101.3 kPa, x1 = 0.5287 | 0.797
298.15 K, 101.3 kPa, x1 = 0.7516 | 0.637
298.15 K, 101.33 kPa, x1 = 0.1571 | 1.435
298.15 K, 101.33 kPa, x1 = 0.2757 | 1.167
298.15 K, 101.33 kPa, x1 = 0.3573 | 1.018
298.15 K, 101.33 kPa, x1 = 0.5287 | 0.797
298.15 K, 101.33 kPa, x1 = 0.6446 | 0.703
298.15 K, 101.33 kPa, x1 = 0.7516 | 0.637
298.15 K, 101.33 kPa, x1 = 0.8737 | 0.599
298.15 K, 101.33 kPa, x1 = 0.9369 | 0.592
298.15 K, 101.33 kPa, x2 = 0.2 | 0.622
303.15 K, 101 kPa, x1 = 0.062 | 1.522
303.15 K, 101 kPa, x1 = 0.1398 | 1.319
303.15 K, 101 kPa, x1 = 0.295 | 1.021
303.15 K, 101 kPa, x1 = 0.388 | 0.892
303.15 K, 101 kPa, x1 = 0.4661 | 0.808
303.15 K, 101 kPa, x1 = 0.5337 | 0.737
303.15 K, 101 kPa, x1 = 0.6049 | 0.68
303.15 K, 101 kPa, x1 = 0.7128 | 0.609
303.15 K, 101 kPa, x1 = 0.806 | 0.58
303.15 K, 101 kPa, x1 = 0.89 | 0.566
308.15 K, 100 kPa, x2 = 0.059 | 0.5422
308.15 K, 100 kPa, x2 = 0.1169 | 0.5507
308.15 K, 100 kPa, x2 = 0.2295 | 0.5825
308.15 K, 100 kPa, x2 = 0.2843 | 0.5616
308.15 K, 100 kPa, x2 = 0.3733 | 0.6014
308.15 K, 100 kPa, x2 = 0.5437 | 0.7483
308.15 K, 100 kPa, x2 = 0.6252 | 0.8508
308.15 K, 100 kPa, x2 = 0.7044 | 0.9663
308.15 K, 100 kPa, x2 = 0.7814 | 1.098
308.15 K, 100 kPa, x2 = 0.8563 | 1.267
308.15 K, 100 kPa, x2 = 0.9291 | 1.405
308.15 K, 101 kPa, x1 = 0.062 | 1.369
308.15 K, 101 kPa, x1 = 0.1398 | 1.182
308.15 K, 101 kPa, x1 = 0.295 | 0.921
308.15 K, 101 kPa, x1 = 0.388 | 0.81
308.15 K, 101 kPa, x1 = 0.4661 | 0.736
308.15 K, 101 kPa, x1 = 0.5337 | 0.678
308.15 K, 101 kPa, x1 = 0.6049 | 0.63
308.15 K, 101 kPa, x1 = 0.7128 | 0.566
308.15 K, 101 kPa, x1 = 0.806 | 0.541
308.15 K, 101 kPa, x1 = 0.89 | 0.527
308.15 K, 101.3 kPa, x1 = 0.1571 | 1.155
308.15 K, 101.3 kPa, x1 = 0.3573 | 0.834
308.15 K, 101.3 kPa, x1 = 0.5287 | 0.668
308.15 K, 101.3 kPa, x1 = 0.7516 | 0.552
308.15 K, 101.33 kPa, x1 = 0.1571 | 1.155
308.15 K, 101.33 kPa, x1 = 0.3573 | 0.834
308.15 K, 101.33 kPa, x1 = 0.5287 | 0.668
308.15 K, 101.33 kPa, x1 = 0.7516 | 0.552
313.15 K, 101 kPa, x1 = 0.062 | 1.225
313.15 K, 101 kPa, x1 = 0.1398 | 1.061
313.15 K, 101 kPa, x1 = 0.295 | 0.835
313.15 K, 101 kPa, x1 = 0.388 | 0.739
313.15 K, 101 kPa, x1 = 0.4661 | 0.674
313.15 K, 101 kPa, x1 = 0.5337 | 0.623
313.15 K, 101 kPa, x1 = 0.6049 | 0.582
313.15 K, 101 kPa, x1 = 0.7 | 0.5283
313.15 K, 101 kPa, x1 = 0.7128 | 0.528
313.15 K, 101 kPa, x1 = 0.806 | 0.503
313.15 K, 101 kPa, x1 = 0.89 | 0.493
318.15 K, 101 kPa, x1 = 0.062 | 1.103
318.15 K, 101 kPa, x1 = 0.1398 | 0.956
318.15 K, 101 kPa, x1 = 0.295 | 0.76
318.15 K, 101 kPa, x1 = 0.388 | 0.676
318.15 K, 101 kPa, x1 = 0.4661 | 0.617
318.15 K, 101 kPa, x1 = 0.5337 | 0.572
318.15 K, 101 kPa, x1 = 0.6049 | 0.539
318.15 K, 101 kPa, x1 = 0.7128 | 0.493
318.15 K, 101 kPa, x1 = 0.806 | 0.47
318.15 K, 101 kPa, x1 = 0.89 | 0.463
323.15 K, 101.33 kPa, x2 = 0.2 | 0.44
